Data on 18 compounds can be found in US10183908B2, “Compositions for the treatment of kidney and/or liver disease” (VECTUS BIOSYSTEMS LIMITED, priority 2015, dated 2019).

Structures are written as SMILES.

Assay [1] deals with bovine aortic endothelial cells. Put plainly: xCELLigence cell impedance in bovine aortic endothelial cells. The assay is classed as cell-based. The note with it: test compounds at 62.5, 125 or 250 μM; FIG. 9; negative response = indirect vasodilator. As for the experimental part:
(§1) Briefly, 50 μl of cell culture medium (DMEM low glucose supplemented with 10% fetal bovine serum at 37° C.) was added to each well of an E-Plate 96 (Roche), and the background impedance in each well was measured. 50 μl of A-10 cell suspension (10,000 cells/well) was then added to the appropriate wells of the E-Plate 96. Cell index was monitored for each well of the E-Plate 96 in RTCA SP Station within the cell culture incubator. After overnight incubation for 16-20 hours at 5% CO2 and 95% humidity, 100 μl of test compound solution (test compounds were prepared in DMSO and diluted with cell culture medium to a final DMSO concentration of 0.25%) was added to the appropriate wells of the E-Plate 96 and cell index values were measured immediately following compound treatment every 20 seconds for 3 hours. Cell index value is baseline-corrected by subtracting the cell index of vehicle-treated cells and normalized by dividing by the cell index at the time point immediately before compound addition. Baseline normalized cell index as a function of time is plotted using Roche RTCA software.
The xCELLigence SP system was also used to measure changes in cellular impedance following the treatment of bovine aortic endothelial cells (European Collection of Cell Cultures) with test compound. The method employed is the same for the A10 embryonic vascular smooth muscle cells described above but with the cell culture medium supplemented with 15% fetal bovine serum instead of 10%.
Compounds may interact with vascular endothelial cells causing the release of substances such as nitric oxide and endothelium-derived hyperpolarising factor, which in turn act on the vascular smooth muscle cells causing vasodilatation and lowering blood pressure. Such compounds are termed indirect vasodilators.

In assay [2] the test system is Rat (NRK-52E) renal proximal tubule cells. Put plainly: Rescue of renal proximal tubule cells from cisplatin cytotoxicity (WST-8/CCK-8). The assay is classed as cell-based. The note with it: test compound 30 μM; cisplatin 5 μg/ml; 24 or 48 hours; FIG. 10. As for the experimental part: Rat (NRK-52E) renal proximal tubule cells grown in DMEM+10% FBS+1% NEAA+2 mM glutamine were placed in 96 well plates at 10,000 cells/well and incubated at 37° C. with 5% CO2 overnight. Test compounds at a concentration of 30 μM were incubated with human or rat renal proximal tubule cells for 2 hours at 37° C. and 5% CO2. Cis-diamminedichloroplatinum[…] (cisplatin) was then added at […] and each cell population was then incubated for 24 or 48 hours at 37° C. with 5% CO2. Test compounds were maintained at their original concentrations. To assay the cytotoxic effects of cisplatin on the rat renal proximal tubule cells a highly water-soluble tetrazolium salt, WST-8, which is reduced by dehydrogenases in cells to produce formazan, a water-soluble, yellow-coloured indicator dye was used following the manufacturer's instructions (specifically the Cell Count Kit-8 (CCK-8) assay from Sigma). Plate absorbance of the WST-8 (CCK-8) reagent was then measured at 450 nm using a Thermo Scientific Multiskan EX plate reader.
For orientation: Tetrazolium assays rely on reduction of a dye to a coloured formazan, in cell work by metabolically active cells.

Assay [3] has as its system A10 embryonic vascular smooth muscle cells. Put plainly: xCELLigence cell impedance in A10 vascular smooth muscle cells. The format is cell-based. The following applies: test compounds at 62.5, 125 or 250 μM; FIG. 8; negative response = direct vasodilator.
Text: The xCELLigence SP system (Roche) was used to measure changes in cellular impedance (cell index) following the treatment of A10 embryonic vascular smooth muscle cells (ATCC, CRL-1476) with test compound. In this in vitro cell based experimental system a negative impedance profile correlates with blood pressure reduction in rats—a decrease in impedance is associated with vasodilatation and an increase in impedance is associated with vasoconstriction (Stallaert W, Dorn J F, van der Westhuizen E, Audet M & Bouvier M. Impedance responses reveal β-adrenergic signaling […] and allow classification of ligands with distinct signalling profiles PLoS ONE 2012; 7(1):e29420, doi:10.1371/journal.pone.0029420).
as §1
Compounds may achieve reductions in blood pressure by interaction with vascular smooth muscle cells causing these cells to relax resulting in vasodilatation and a reduction in blood pressure. These are termed direct vasodilators.

In assay [4] the test system is SHR. Description: Kidney fibrosis in SHR (Masson's trichrome). The format is in vivo, rat. The note with it: SHR on 2.2% salt diet; 500 pmol/kg/min; 4 weeks; FIG. 12, *p<0.05. An excerpt:
(§2) Fourteen week old SHR (on a 2.2% salt diet; Glen Forrest Stockfeeders) were randomly assigned to zero time control (14 week old rats), test compound treatment drinking solution (500 pmol/kg/min in deionised distilled water) or control drinking solution (5% ethanol in deionised distilled water). The rats assigned to zero time control group (14 week old rats) were anaesthetised and had their kidneys and liver harvested while rats assigned to control and test compound treatment were weighed twice weekly and had their drinking solution intake monitored to allow adjustment of the test compound concentration in the drinking solution to maintain a constant dose over the 4-week study period. Blood pressure was measured twice weekly by tail cuff plethysmography (PowerLab, ADInstruments, Castle Hill, NSW, Australia). After 4 weeks rats were anaesthetised (18 week old rats), and their kidneys and liver harvested. To quantitate tissue fibrosis and/or fat content, tissue slices ≤3 mm thick were fixed in 10% buffered formalin for 24 hours, processed and embedded in paraffin. Three micron transverse sections were stained using Masson's trichrome stain. A minimum of 20 random fields at magnification ×20 from transverse sections (5 at each of 2 levels) were digitized and the degree of fibrosis and fat content determined as a percent of field area of each digitized image using Image-Pro Plus V.7 (Media Cybernetics, Bethesda, Md., USA) then averaged to determine the level of fibrosis and/or fat content for each rat.

The test system of assay [5] is SHR. Put plainly: Hepatic fibrosis in SHR (Masson's trichrome). The following applies: for Fibrosis in the liver compared to 18 week controls: SHR, 500 pmol/kg/min, 4 weeks, FIG. 13, *p<0.05, **p<0.025, ***p<0.01. The assay is classed as in vivo, rat.
Text: as §2

Take `NC(=O)CCc1cc(-c2cccc(F)c2)ccc1-c1cccc(O)c1` [Compound P1, 3-(3″-Fluoro-3-hydroxy-1,1′:4′,1′-terphenyl-2′-yl)propanamide]: the “impedance response for bovine aortic endothelial cells” value in assay [1] is recorded as “Negative impedance responses”. The “Cisplatin induced cell death in renal proximal tubular cells” value (“Cisplatin induced cell death” for short) in assay [2] was “decreased”.

Regarding `NC(=O)CCc1cc(-c2ccc(F)cc2)ccc1-c1cccc(O)c1` [Compound P3, 3-(4″-Fluoro-3-hydroxy-1,1′:4′,1″-terphenyl-2′-yl)propanamide], in assay [3], the “impedance response for A10 vascular smooth muscle cells” value was “Negative impedance responses”. Further, in assay [1], the “impedance response for bovine aortic endothelial cells” value was “Negative impedance responses”. Also, in assay [2], the “Cisplatin induced cell death” value is reported as “decreased”.

In the case of `NC(=O)CCc1cc(-c2ccccn2)ccc1-c1cccc(O)c1` [Compound P4, 3-[3′-Hydroxy-4-(pyridin-2-yl)biphenyl-2-yl]propanamide], the “impedance response for bovine aortic endothelial cells” value in assay [1] is reported as “Negative impedance responses”. In addition, the “Cisplatin induced cell death” value in assay [2] is reported as “decreased”.

`NC(=O)CCc1cc(-c2ccncc2)ccc1-c1cccc(O)c1` [Compound P6, 3-[3′-Hydroxy-4-(pyridin-4-yl)biphenyl-2-yl]propanamide]: the “impedance response for bovine aortic endothelial cells” value in assay [1] is reported as “Negative impedance responses”. Also, the “Cisplatin induced cell death” value in assay [2] is recorded as “decreased”.

Take `NC(=O)CCc1cc(-n2cccc2)ccc1-c1cccc(O)c1` [Compound P9, 3-(3′-Hydroxy-4-(1H-pyrrol-1-yl)-[1,1′-biphenyl]-2-yl)propanamide]: the “impedance response for A10 vascular smooth muscle cells” value in assay [3] is recorded as “Negative impedance responses”. The “impedance response for bovine aortic endothelial cells” value in assay [1] was “Negative impedance responses”. Also, the “Cisplatin induced cell death” value in assay [2] was “decreased”. In addition, the “Fibrosis in the kidney compared to 18 week controls” value in the assay on SHR [4] is “decreased”. Also, the “Tissue architecture of portal tracts in Masson's tri-chrome stained liver sections” value in the assay on SHR [5] (SHR treated rats vs control, FIG. 14) is “normal tissue architecture has been restored”. In addition, the “Fibrosis in the liver compared to 18 week controls” value with SHR [5] is listed as “decreased”.

For the compound `NC(=O)CCc1cc(-c2ccoc2)ccc1-c1cccc(O)c1` [Compound P11, 3-(4-(Furan-3-yl)-3′-hydroxy-[1,1′-biphenyl]-2-yl)propanamide], the “impedance response for A10 vascular smooth muscle cells” value in assay [3] is on record as “Negative impedance responses”. In addition, in assay [1], the “impedance response for bovine aortic endothelial cells” value is recorded as “Negative impedance responses”. In addition, in assay [2], the “Cisplatin induced cell death” value is recorded as “decreased”. Also, the “Fibrosis in the kidney compared to 18 week controls” value in the assay on SHR [4] is listed as “decreased”. For the same compound, the “Fibrosis in the liver compared to 18 week controls” value in the assay on SHR [5] is “decreased”.

`NC(=O)CCc1cc(-c2cc(F)cc(F)c2)ccc1-c1cccc(O)c1` [Compound P33, 3-(3″,5″-Difluoro-3-hydroxy-1,1′:4′,1″-terphenyl-2′-yl)propanamide]: the “impedance response for A10 vascular smooth muscle cells” value in assay [3] is “Negative impedance responses”. Further, in assay [1], the “impedance response for bovine aortic endothelial cells” value is “Negative impedance responses”. The “Cisplatin induced cell death” value in assay [2] is on record as “decreased”.

Regarding `Cn1nccc1-c1ccc(-c2cccc(O)c2)c(CCC(N)=O)c1` [Compound P38, 3-[3′-Hydroxy-4-(1-methyl-1H-pyrazol-5-yl)biphenyl-2-yl]propanamide], the “impedance response for bovine aortic endothelial cells” value in assay [1] was “Negative impedance responses”. Besides, in assay [2], the “Cisplatin induced cell death” value was “decreased”.

On to `Cc1noc(C)c1-c1ccc(-c2cccc(O)c2)c(CCC(N)=O)c1` [Compound P41, 3-(4-(3,5-Dimethylisoxazol-4-yl)-3′-hydroxy-[1,1′-biphenyl]-2-yl)propanamide], for which the “impedance response for bovine aortic endothelial cells” value in assay [1] is “Negative impedance responses”. For the same compound, the “Cisplatin induced cell death” value in assay [2] was “decreased”.

For the compound `Cc1n[nH]c(C)c1-c1ccc(-c2cccc(O)c2)c(CCC(N)=O)c1` [Compound P42, 3-[4-(3,5-Dimethyl-1H-pyrazol-4-yl)-3′-hydroxybiphenyl-2-yl]propanamide], the “impedance response for bovine aortic endothelial cells” value in assay [1] was “Negative impedance responses”. In addition, in assay [2], the “Cisplatin induced cell death” value was “decreased”.

Turning to `Cc1ccsc1-c1ccc(-c2cccc(O)c2)c(CCC(N)=O)c1` [Compound P43, 3-[3′-Hydroxy-4-(3-methylthiophen-2-yl)biphenyl-2-yl]propanamide], the “impedance response for bovine aortic endothelial cells” value in assay [1] is reported as “Negative impedance responses”. The “Cisplatin induced cell death” value in assay [2] is “decreased”.

`Cc1cscc1-c1ccc(-c2cccc(O)c2)c(CCC(N)=O)c1` [Compound P44, 3-[3′-Hydroxy-4-(4-methylthiophen-3-yl)biphenyl-2-yl]propanamide]: in assay [1], the “impedance response for bovine aortic endothelial cells” value is “Negative impedance responses”. Also, the “Cisplatin induced cell death” value in assay [2] was “decreased”.

For `Cc1n[nH]cc1-c1ccc(-c2cccc(O)c2)c(CCC(N)=O)c1` [Compound P45, 3-[3′-Hydroxy-4-(3-methyl-1H-pyrazol-4-yl)biphenyl-2-yl]propanamide], in assay [2], the “Cisplatin induced cell death” value was “decreased”.

Consider `Cc1cccc(-c2ccc(-c3cccc(O)c3)c(CCC(N)=O)c2)c1` [Compound P46, 3-(3-Hydroxy-3″-methyl-1,1′:4′,1″-terphenyl-2′-yl)propanamide], for which the “impedance response for A10 vascular smooth muscle cells” value in assay [3] was “Negative impedance responses”. For the same compound, in assay [1], the “impedance response for bovine aortic endothelial cells” value is given as “Negative impedance responses”. For the same compound, the “Cisplatin induced cell death” value in assay [2] is given as “decreased”.

For the compound `NC(=O)CCc1cc(-c2cccc(C(=O)O)c2)ccc1-c1cccc(O)c1` [Compound P47, 3′-(3-Amino-3-oxopropyl)-3″-hydroxy-1,1′:4′,1″-terphenyl-3-carboxylic Acid], in assay [1], the “impedance response for bovine aortic endothelial cells” value is given as “Negative impedance responses”.

For the compound `NC(=O)CCc1cc(-c2cccc(O)c2)ccc1-c1cccc(O)c1` [Compound P48, 3-(3,3″-Dihydroxy-1,1′:4′,1″-terphenyl-2′-yl)propanamide], the “impedance response for bovine aortic endothelial cells” value in assay [1] is recorded as “Negative impedance responses”.

Regarding `NC(=O)CCc1cc(-c2ccc(N)cc2)ccc1-c1cccc(O)c1` [Compound P49, 3-(4″-Amino-3-hydroxy-1,1′:4′,1″-terphenyl-2′-yl)propanamide], the “impedance response for bovine aortic endothelial cells” value in assay [1] is given as “Negative impedance responses”. The “Cisplatin induced cell death” value in assay [2] is reported as “decreased”.

Turning to `COc1cccc(-c2ccc(-c3cccc(O)c3)c(CCC(N)=O)c2)c1` [Compound P50, 3-(3-Hydroxy-3″-methoxy-1,1′:4′,1″-terphenyl-2′-yl)propanamide], the “impedance response for bovine aortic endothelial cells” value in assay [1] is “Negative impedance responses”. Besides, the “Cisplatin induced cell death” value in assay [2] is “decreased”.
